In ChEMBL document CHEMBL1201862, “PubChem BioAssay data set” (2004):
Activity calls are given as the source filed them.

Legend:
[1] = cytotoxicity in HEK-293T cells, dose response, cytotoxicity control for TCR NF-kB inhibitor project, luminescence, T-cell screen hits (AID 489026); type: functional, cell-based;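 further: cells exposed to compound about 14 hours before the viability readout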
HEK293 [2] = test: inhibitors of LMP1-driven NF-kB reporter, dose response, cell-based, HEK293, luciferase, cherry-pick (AID 588343); type: functional; details: Homo sapiens
[3] = molecular target: T1, Carboxy-terminal domain RNA polymerase II polypeptide A small phosphatase 1 (Homo sapiens, UniProt Q9GZU7); test: inhibitors of CTDSP1, concentration-response testing, biochemical assay, absorbance-based, actives from ultra-high-throughput screening (AID 540297); type: functional
T1 sequence (Q9GZU7 whole entry): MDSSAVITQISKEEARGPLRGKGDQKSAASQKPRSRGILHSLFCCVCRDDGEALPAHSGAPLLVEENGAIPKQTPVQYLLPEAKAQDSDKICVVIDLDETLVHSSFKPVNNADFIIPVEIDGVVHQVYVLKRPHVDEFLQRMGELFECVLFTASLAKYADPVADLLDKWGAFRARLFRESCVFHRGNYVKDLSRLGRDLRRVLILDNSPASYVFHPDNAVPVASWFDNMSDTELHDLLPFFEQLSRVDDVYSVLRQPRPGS

[4] = molecular target: T2, Nuclear receptor subfamily 0 group B member 1 (Homo sapiens, UniProt P51843); test: Luminescence-based cell-based high throughput dose response assay for inhibitors of the orphan nuclear receptor subfamily 0, group B, member 1 (DAX1; NR0B1). [Related pubchem assays (depositor defined):AID504766, AID504790]; type: functional
T2 sequence (P51843 whole entry): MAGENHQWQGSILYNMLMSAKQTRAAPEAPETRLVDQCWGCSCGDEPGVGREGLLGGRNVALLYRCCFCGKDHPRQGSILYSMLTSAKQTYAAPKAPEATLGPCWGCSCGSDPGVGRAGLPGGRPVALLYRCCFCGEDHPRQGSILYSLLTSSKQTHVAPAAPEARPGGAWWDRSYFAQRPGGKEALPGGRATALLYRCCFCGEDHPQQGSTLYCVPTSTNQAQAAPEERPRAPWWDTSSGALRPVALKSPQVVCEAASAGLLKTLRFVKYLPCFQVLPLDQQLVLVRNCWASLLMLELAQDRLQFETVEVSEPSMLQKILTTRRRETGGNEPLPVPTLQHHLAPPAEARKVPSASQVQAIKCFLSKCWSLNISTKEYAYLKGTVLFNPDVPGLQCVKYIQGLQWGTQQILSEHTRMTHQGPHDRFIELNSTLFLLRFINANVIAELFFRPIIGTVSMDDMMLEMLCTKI

HEK293 [5] = test: cells; type: functional, cell-based; details: Homo sapiens
CAAX prenyl protease 2 [6] = molecular target: T3, CAAX prenyl protease 2 (Homo sapiens, UniProt Q9Y256); test: human Rce1 protease inhibitors, dose response, biochemical, yeast membranes, quenched-peptide fluorescence, cherry-pick (AID 588849)
T3 sequence (Q9Y256 whole entry): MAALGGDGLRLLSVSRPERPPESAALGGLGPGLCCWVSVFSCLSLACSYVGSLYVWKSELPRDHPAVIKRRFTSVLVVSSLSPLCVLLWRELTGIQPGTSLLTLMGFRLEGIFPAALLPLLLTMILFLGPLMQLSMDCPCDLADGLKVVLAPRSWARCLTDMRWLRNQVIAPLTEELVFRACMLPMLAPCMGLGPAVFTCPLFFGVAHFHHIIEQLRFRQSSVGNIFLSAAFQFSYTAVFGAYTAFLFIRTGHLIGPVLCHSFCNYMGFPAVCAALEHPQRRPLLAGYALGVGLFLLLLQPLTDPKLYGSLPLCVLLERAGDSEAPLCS

Trypsin = Trypsin (Sus scrofa, UniProt P00761); test: porcine trypsin inhibitors, dose response, selectivity assay for Rce1 protease inhibitor project, biochemical, quenched peptide fluorescence, cherry-pick (AID 488789)
CAAX prenyl protease 2 [7] = molecular target: T4, CAAX prenyl protease 2 (Saccharomyces cerevisiae S288c, UniProt Q03530); type: biochemical
T4 sequence (Q03530 whole entry): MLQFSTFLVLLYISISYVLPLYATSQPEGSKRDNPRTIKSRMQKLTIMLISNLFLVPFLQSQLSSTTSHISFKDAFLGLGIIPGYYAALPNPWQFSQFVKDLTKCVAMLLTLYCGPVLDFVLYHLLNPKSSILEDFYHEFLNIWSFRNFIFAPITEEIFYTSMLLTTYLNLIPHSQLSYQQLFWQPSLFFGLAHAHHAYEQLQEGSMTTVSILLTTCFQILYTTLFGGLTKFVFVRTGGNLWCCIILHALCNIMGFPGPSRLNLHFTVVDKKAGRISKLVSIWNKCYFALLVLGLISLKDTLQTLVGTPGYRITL

[8] = AlphaScreen signal interference compounds, dose response, artefact control for ARNT-TACC3 interaction inhibitor project, biochemical, luminescence, cherry-pick (AID 651705); type: functional;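 further: AlphaScreen bead proximity signal that flags compounds interfering with the detection technology; potency reflects signal decrease which marks the compound as an assay artifact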
Caspase-3 = molecular target: T5, Caspase-3 (Homo sapiens, UniProt P42574); type: functional;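 further: Dose-response selectivity test against caspase-3 for candidate inhibitors of sentrin-specific proteases (SENPs)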
T5 sequence (P42574 whole entry): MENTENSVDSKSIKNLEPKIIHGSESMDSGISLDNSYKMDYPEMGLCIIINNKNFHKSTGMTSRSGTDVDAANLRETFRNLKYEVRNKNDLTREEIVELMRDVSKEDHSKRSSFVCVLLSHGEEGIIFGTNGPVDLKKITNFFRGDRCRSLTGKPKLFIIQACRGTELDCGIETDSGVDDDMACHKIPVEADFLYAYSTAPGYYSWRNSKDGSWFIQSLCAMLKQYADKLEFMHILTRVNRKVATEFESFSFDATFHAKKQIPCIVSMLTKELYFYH

[9] = molecular target: T6, Sentrin-specific protease 8 (Homo sapiens, UniProt Q96LD8); type: functional;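 further: luminescence read-out of SENP8 inhibition, dose-response confirmation following an ultra-high-throughput screen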
T6 sequence (Q96LD8 whole entry): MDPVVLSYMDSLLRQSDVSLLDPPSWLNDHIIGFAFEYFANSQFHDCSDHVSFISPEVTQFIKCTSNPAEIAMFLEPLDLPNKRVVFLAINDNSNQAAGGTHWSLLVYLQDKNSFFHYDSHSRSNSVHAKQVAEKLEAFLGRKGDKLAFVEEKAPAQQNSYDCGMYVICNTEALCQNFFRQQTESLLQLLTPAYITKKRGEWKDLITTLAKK

[10] = molecular target: T7, Sentrin-specific protease 6 (Homo sapiens, UniProt Q9GZR1); type: functional;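 further: Luminescence-based dose-response confirmatory assay of SENP6 inhibition, following up an ultra-high-throughput screen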
T7 sequence (Q9GZR1 whole entry): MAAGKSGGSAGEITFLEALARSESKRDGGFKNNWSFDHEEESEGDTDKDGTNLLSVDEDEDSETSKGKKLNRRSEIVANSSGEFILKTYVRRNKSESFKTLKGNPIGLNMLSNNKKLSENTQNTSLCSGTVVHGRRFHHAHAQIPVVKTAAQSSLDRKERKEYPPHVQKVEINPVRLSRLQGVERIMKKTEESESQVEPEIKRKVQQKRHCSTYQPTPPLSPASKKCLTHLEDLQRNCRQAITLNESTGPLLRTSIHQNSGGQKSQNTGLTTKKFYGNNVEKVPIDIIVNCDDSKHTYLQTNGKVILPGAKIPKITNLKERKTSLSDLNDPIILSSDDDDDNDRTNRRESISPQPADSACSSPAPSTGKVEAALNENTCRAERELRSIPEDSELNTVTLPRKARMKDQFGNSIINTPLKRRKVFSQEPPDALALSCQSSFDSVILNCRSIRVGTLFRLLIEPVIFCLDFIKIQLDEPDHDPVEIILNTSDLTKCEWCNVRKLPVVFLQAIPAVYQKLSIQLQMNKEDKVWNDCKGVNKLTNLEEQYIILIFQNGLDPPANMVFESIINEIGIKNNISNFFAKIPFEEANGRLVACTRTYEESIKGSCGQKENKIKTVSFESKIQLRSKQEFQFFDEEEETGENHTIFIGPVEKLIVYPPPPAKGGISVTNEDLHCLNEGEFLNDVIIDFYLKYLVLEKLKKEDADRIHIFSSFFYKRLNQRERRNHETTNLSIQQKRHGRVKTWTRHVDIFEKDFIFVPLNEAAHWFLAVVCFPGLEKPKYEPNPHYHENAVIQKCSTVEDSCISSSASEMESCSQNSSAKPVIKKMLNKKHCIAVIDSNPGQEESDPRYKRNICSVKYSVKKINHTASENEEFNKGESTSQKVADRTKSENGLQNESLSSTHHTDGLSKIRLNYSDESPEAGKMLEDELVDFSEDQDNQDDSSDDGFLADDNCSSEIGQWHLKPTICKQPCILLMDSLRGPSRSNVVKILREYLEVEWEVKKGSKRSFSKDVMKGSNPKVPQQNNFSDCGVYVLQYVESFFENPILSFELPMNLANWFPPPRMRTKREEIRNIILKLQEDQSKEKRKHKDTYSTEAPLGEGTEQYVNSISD

[11] = molecular target: T8, Sentrin-specific protease 7 (Homo sapiens, UniProt Q9BQF6); type: functional;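 further: Luminescence-based dose-response confirmation of ultra-high-throughput screening hits, measuring inhibition of SENP7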
T8 sequence (Q9BQF6 whole entry): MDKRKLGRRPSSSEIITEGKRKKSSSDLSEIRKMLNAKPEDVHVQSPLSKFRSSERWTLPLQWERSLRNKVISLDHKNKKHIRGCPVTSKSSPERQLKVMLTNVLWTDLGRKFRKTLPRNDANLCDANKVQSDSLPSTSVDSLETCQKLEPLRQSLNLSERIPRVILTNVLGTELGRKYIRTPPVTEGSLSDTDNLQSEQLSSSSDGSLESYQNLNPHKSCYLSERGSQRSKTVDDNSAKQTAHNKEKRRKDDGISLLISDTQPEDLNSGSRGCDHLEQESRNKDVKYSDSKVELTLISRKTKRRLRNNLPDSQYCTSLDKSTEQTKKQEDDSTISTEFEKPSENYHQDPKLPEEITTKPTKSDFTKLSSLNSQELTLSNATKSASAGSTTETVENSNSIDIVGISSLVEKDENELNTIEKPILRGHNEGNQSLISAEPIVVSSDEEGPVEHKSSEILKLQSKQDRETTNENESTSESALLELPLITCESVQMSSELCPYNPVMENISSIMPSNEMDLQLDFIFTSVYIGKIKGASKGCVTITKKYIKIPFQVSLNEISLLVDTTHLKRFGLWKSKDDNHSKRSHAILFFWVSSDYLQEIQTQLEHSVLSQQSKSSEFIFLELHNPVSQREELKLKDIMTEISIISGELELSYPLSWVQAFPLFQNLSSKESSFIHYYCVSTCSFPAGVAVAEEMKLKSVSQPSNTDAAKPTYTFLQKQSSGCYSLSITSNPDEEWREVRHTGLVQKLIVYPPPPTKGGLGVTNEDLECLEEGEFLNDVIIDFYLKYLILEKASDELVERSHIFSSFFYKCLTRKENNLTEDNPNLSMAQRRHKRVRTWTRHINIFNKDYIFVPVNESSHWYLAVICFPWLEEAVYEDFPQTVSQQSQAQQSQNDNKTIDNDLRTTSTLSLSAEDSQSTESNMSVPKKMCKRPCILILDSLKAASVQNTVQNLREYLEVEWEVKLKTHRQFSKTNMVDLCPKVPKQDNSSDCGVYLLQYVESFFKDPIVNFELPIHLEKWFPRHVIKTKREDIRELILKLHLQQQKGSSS

Chain of Trypsin (P00761 whole entry): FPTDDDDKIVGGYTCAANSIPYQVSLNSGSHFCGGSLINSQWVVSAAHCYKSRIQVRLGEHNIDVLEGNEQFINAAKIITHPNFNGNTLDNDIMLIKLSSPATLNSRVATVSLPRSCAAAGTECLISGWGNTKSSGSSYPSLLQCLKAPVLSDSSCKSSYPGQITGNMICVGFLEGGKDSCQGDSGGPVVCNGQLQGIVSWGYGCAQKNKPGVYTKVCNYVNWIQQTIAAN

Q: What does the source list for `COc1cc2nc(NC(=O)c3ccco3)sc(=O)c2cc1OC`?
A: IC50 [1]: > 80 µM (inactive); AC50 (HEK293 [2]): 6.84 µM (active); IC50 [3]: 10.5 µM (active)

Q: Which results are given for `Cc1cc(NC(=O)CSc2nc(N)c(NC(=O)c3ccco3)c(O)n2)no1`?
A: IC50 [4]: > 67.6 µM (inactive); IC50 (HEK293 [5]): > 67.6 µM (inactive)

Q: For `Cc1ccc(CN2CCN(/N=C/c3ccccc3)CC2)cc1`, which IC50 [4] is on record?
A: > 67.6 µM (inactive)

Q: And the IC50 (HEK293 [5])?
A: > 67.6 µM (inactive)

Q: With `COc1ccc(C2SCC(C(=O)O)N2C(C)=O)cc1OC` (centres undefined) as the compound, how does the IC50 [4] read?
A: > 67.5 µM (inactive)

Q: And the IC50 (HEK293 [5])?
A: > 67.5 µM (inactive)

Q: Which results are given for `Nc1c(C(=O)NCCN2CCOCC2)c2nc3ccccc3nc2n1-c1cccc(F)c1`?
A: AC50 (CAAX prenyl protease 2 [6]): 5.43 µM (active); AC50 (Trypsin): 12.4 µM (active); AC50 (CAAX prenyl protease 2 [7]): 15 µM (active)

Q: For `Cc1nc2ncccn2c1-c1csc(Nc2ccccc2)n1`, which AC50 (HEK293 [2]) is on record?
A: 28.1 µM (active)

Q: What about the AC50 [8] of the same compound?
A: 93.5 µM (active)

Q: Which results are given for `Clc1ccc(-c2nnc(NC3=NCCCCC3)o2)cc1`?
A: AC50 (HEK293 [2]): 1.84 µM (active); IC50 (Caspase-3): 15 µM (active); IC50 [9]: 29.8 µM (active); IC50 [10]: 30.1 µM (active); IC50 [11]: 15.4 µM (active)
